Test results as given in ChEMBL document CHEMBL1201862, “PubChem BioAssay data set” (2004).
Activity calls are given as the source filed them.

Legend:
[1] = target: Genome polyprotein (dengue virus type 2, UniProt P29990); assay: flavivirus cap methylation enzyme inhibition – biochemical, confirmation dose response, primary screen (AID 588689); type: functional
[2] = target: DNA dC->dU-editing enzyme APOBEC-3A (Homo sapiens, UniProt P31941); assay: A3A deaminase inhibition for selectivity – biochemical, dose response (AID 504722); type: functional
Chain of DNA dC->dU-editing enzyme APOBEC-3A (P31941 whole entry): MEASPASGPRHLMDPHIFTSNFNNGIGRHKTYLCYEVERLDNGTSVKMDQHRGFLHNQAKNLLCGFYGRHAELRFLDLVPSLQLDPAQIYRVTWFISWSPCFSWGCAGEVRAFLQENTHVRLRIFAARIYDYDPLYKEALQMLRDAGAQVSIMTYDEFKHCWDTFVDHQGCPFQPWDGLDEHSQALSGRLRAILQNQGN

[3] = target: Hexokinase-1 (Homo sapiens, UniProt P19367); assay: HK1 enzyme activation by HKDC1 hits – biochemical, selectivity assay for HKDC1 activator project, dose response (AID 504762); type: functional
Chain of Hexokinase-1 (P19367 whole entry): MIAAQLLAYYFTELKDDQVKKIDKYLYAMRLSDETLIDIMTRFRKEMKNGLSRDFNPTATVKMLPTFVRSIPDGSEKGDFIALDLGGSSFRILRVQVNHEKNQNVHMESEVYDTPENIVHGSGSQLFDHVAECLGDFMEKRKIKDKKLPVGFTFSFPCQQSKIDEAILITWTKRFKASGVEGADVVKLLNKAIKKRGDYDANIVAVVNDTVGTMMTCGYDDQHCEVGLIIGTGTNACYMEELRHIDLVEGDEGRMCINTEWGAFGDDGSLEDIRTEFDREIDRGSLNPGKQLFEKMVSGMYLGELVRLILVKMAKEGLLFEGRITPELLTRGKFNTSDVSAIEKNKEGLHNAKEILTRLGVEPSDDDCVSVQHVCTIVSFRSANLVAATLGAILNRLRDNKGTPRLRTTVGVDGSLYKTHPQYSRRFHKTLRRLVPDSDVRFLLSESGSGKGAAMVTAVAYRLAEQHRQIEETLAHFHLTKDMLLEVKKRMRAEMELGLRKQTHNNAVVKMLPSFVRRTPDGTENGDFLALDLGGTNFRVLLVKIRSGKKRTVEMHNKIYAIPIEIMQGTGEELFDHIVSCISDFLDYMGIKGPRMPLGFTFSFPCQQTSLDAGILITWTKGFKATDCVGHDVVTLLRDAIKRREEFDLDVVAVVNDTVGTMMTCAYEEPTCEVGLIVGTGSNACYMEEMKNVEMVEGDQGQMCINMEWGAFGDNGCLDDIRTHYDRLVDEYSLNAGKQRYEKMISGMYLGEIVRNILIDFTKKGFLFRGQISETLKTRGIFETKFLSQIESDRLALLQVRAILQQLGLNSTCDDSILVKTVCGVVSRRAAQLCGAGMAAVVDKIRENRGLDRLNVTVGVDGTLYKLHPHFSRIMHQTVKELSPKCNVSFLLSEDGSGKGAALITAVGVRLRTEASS

[4] = target: DNA dC->dU-editing enzyme APOBEC-3G (Homo sapiens, UniProt Q9HC16); assay: Dose Response confirmation of small molecule APOBEC3G DNA Deaminase Inhibitors via a fluorescence-based single-stranded DNA deaminase assay. [Related pubchem assays (depositor defined):AID493012, AID493028]; type: functional
Chain of DNA dC->dU-editing enzyme APOBEC-3G (Q9HC16 whole entry): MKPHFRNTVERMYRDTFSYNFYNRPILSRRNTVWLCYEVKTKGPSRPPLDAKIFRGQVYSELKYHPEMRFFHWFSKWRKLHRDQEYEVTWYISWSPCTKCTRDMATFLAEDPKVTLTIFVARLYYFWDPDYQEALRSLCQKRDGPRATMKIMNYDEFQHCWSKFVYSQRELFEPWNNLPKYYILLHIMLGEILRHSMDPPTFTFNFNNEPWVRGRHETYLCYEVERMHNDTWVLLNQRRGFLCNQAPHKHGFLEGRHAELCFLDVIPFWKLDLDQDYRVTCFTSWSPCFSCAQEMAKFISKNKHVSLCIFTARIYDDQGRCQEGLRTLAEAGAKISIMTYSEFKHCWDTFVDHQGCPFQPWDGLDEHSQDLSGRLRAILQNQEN

[5] = target: Glucose-6-phosphate 1-dehydrogenase (Homo sapiens, UniProt P11413); assay: inhibition of Homo sapiens G6PD, dose series – biochemical, fluorescence, selectivity assay for P. falciparum G6PD inhibitor project, dose response (AID 504792); type: functional
Chain of Glucose-6-phosphate 1-dehydrogenase (P11413 whole entry): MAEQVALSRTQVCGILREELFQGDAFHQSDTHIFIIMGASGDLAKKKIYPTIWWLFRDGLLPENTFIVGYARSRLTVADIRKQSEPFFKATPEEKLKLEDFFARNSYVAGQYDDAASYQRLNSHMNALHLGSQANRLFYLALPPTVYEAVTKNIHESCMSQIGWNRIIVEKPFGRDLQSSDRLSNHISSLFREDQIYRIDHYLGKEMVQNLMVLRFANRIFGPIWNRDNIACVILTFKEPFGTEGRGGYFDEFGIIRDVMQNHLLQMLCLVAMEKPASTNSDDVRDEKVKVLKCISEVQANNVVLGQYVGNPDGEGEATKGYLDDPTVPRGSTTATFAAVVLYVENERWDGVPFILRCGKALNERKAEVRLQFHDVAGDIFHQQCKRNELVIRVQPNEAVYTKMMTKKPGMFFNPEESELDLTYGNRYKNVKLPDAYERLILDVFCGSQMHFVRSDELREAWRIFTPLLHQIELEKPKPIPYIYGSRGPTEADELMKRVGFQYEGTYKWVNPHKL

[6] = HGIII-sPLA2 enzyme inhibition potency – biochemical, QFRET, IC50, dose response (AID 743457);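 also: green fluorescence rise as the enzyme cleaves BODIPY PC-A2 in liposomes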
[7] = target: Hexokinase HKDC1 (Homo sapiens, UniProt Q2TB90); assay: activation of HKDC1 glucose phosphorylation – biochemical, W721R variant, dose response (AID 504730); type: functional
[8] = system: HEK293; assay: EBV LMP1 TES2 canonical NF-kB signalling blockers – cell-based, HEK293, luciferase, cherry-pick, dose response (AID 588343); type: functional; details: Homo sapiens
[9] = target: Latent membrane protein 1 (Human herpesvirus 4 (strain B95-8), UniProt P03230); assay: LMP1 TES1 pathway selectivity over dsRED control – imaging, HEK293T, dual-color eGFP/dsRED, cherry-picks, selectivity assay for LMP1 NF-kB inhibitor project, dose response (AID 588398); type: functional, cell-based
Chain of Latent membrane protein 1 (P03230 whole entry): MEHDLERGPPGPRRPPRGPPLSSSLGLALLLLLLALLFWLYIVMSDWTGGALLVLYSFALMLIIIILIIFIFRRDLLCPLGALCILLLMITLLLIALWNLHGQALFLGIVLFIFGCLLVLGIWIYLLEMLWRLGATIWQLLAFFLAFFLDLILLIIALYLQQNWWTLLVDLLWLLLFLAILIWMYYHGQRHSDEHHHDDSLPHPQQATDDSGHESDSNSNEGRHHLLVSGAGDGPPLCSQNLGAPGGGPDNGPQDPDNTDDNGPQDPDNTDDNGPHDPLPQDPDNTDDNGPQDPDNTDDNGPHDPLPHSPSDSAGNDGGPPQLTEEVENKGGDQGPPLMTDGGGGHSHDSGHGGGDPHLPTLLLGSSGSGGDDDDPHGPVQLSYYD

[10] = NIH-3T3 fibroblast cytotoxicity, dose response, cytotoxicity control, cell-based, fluorescence, Alamar Blue, secondary assay (AID 2327); type: functional;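 also: NIH-3T3 mouse fibroblasts cultured with fluconazole at 8 µg/mL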
[11] = system: INS1; assay: INS-1E survival protection against cytokine death – cell-based, luminescence, retest, dose response (AID 449756); type: functional; details: Rattus norvegicus;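 also: cell death triggered by IL-1 beta plus TNF-alpha plus IFN-gamma mixture; protective hits raise ATP signal compared with cytokine alone wells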
[12] = Trypanosoma cruzi growth suppression in host cells – NIH3T3 host cells, beta-gal luminescence, confirmation (AID 2044); type: functional, cell-based;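 also: intracellular parasites grown in NIH/3T3 mouse fibroblasts as host cells; luminescent beta-galactosidase reporter signal from transgenic T. cruzi replicating inside host cells; inhibitors lower the luminescence signal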
[13] = fluconazole-exposed Candida albicans growth modulators – fluorescence, retest, confirmation (AID 2467); type: functional, cell-based
[14] = target: Serine/threonine-protein phosphatase (Candida dubliniensis (strain CD36 / CBS 7987 / NCPF 3949 / NRRLY-17841) (Yeast), UniProt B9W6M3); assay: blockers of CaCl2-induced CDRE-lacZ signaling – S. cerevisiae, luminescence, secondary, dose response (AID 2388); type: functional, cell-based;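 also: yeast reporter cells carrying a calcineurin-responsive lacZ construct stimulated with calcium chloride; luminescent beta-galactosidase reporter signal in whole cells rather than isolated phosphatase activity; potency for inhibition where a drop in reporter signal means calcineurin blockade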
Chain of Serine/threonine-protein phosphatase (B9W6M3 whole entry): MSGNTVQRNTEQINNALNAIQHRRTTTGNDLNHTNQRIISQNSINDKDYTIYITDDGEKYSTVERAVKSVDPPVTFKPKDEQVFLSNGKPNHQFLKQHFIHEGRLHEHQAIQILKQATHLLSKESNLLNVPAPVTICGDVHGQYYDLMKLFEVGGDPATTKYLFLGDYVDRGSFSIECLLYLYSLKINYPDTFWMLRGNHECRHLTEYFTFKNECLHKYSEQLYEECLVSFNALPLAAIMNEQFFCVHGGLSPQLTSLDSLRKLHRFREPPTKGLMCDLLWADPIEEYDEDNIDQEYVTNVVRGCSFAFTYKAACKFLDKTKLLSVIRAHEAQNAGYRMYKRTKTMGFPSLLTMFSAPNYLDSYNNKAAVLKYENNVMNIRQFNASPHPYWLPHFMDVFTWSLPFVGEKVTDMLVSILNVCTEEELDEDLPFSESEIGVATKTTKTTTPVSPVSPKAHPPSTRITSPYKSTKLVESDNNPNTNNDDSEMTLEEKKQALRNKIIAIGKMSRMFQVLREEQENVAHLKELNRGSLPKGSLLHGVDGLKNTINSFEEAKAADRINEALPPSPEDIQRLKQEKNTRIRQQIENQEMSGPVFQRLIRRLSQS

[15] = target: ATP-dependent molecular chaperone HSP82 (Candida albicans (strain WO-1) (Yeast), UniProt C4YTQ8); assay: steroid-induced GRE reporter decrease in yeast – S. cerevisiae, luminescence, Hsp90 inhibitor project, dose response (AID 2400); type: functional, cell-based;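 also: beta-galactosidase luminescence from glucocorticoid response element reporter as proxy for Hsp90 function; inhibitor potency where signal loss means Hsp90 inhibition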
Chain of ATP-dependent molecular chaperone HSP82 (C4YTQ8 whole entry): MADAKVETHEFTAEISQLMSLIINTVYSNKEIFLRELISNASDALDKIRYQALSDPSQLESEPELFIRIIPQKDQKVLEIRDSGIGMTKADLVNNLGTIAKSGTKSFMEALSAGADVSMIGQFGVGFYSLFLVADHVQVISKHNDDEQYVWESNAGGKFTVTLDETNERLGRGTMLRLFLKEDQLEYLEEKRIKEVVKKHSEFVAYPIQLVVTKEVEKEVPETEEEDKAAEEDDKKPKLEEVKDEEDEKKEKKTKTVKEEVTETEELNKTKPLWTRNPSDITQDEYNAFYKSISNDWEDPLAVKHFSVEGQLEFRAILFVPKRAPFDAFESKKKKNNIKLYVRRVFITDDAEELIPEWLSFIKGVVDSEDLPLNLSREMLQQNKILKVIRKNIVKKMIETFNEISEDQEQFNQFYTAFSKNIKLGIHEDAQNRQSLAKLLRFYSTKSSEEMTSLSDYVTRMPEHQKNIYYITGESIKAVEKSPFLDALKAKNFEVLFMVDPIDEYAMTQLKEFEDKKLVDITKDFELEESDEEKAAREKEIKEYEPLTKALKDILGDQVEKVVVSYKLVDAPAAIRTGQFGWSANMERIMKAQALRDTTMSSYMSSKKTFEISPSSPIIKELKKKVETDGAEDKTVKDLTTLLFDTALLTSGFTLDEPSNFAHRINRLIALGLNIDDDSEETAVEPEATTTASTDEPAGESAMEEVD

[16] = NIH3T3 cell viability loss – ATP luminescence, mouse fibroblasts, counter-screen, dose response (AID 2010); type: functional, cell-based;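 also: cells exposed to compound for about 90 hours before reading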
[17] = target: Dual specificity tyrosine-phosphorylation-regulated kinase 1A (Rattus norvegicus, UniProt Q63470); type: biochemical, Homo sapiens
[18] = target: T1, RNA-binding protein pos-1 (Caenorhabditis elegans, UniProt G5EF15); assay: disruptors of C. elegans POS-1 RNA interaction – biochemical, fluorescence polarization, dose response (AID 1964);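 also: purified POS-1 fused to maltose binding protein made in E. coli; potency of compounds blocking POS-1 binding to fluorescent RNA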
T1 sequence (G5EF15 whole entry): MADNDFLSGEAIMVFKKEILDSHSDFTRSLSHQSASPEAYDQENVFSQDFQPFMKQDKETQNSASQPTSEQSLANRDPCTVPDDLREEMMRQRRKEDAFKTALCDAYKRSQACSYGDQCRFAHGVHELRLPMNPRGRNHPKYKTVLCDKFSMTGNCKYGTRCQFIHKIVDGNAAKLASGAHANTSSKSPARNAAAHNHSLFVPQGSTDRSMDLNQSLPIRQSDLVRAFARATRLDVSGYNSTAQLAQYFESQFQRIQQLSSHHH

[19] = target: T2, Caspase-6 (Homo sapiens, UniProt P55212); assay: inhibition of CASP6 peptide cleavage – biochemical, VEID-R110 fluorescence, cherry-pick, dose response (AID 720632)
T2 sequence (P55212 whole entry): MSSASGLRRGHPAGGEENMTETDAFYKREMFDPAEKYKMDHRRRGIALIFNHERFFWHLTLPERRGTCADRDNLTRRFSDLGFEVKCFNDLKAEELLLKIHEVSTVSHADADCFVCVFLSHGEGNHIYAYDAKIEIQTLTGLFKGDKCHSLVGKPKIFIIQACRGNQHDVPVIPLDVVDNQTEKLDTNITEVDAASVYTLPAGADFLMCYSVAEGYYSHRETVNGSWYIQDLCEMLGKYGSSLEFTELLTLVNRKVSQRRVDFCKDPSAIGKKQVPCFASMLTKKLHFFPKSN

[20] = target: T3, Zinc finger protein mex-5 (Caenorhabditis elegans, UniProt Q9XUB2); assay: potency of MEX-5 RNA-binding blockers – biochemical, C. elegans, fluorescence polarization, dose response (AID 1960)
T3 sequence (Q9XUB2 whole entry): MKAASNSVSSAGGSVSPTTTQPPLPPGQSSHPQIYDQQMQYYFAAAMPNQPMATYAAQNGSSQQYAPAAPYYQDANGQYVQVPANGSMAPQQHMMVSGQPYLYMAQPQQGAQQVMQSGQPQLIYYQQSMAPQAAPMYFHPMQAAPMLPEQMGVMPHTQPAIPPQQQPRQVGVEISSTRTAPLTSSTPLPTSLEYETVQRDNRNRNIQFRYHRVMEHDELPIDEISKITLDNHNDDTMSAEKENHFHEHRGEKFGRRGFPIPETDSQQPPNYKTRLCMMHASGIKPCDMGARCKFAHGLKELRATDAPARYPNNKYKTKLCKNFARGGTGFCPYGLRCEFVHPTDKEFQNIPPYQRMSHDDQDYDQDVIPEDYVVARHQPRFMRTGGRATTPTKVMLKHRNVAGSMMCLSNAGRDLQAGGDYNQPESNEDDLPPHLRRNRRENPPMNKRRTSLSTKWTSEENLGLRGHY

[21] = target: T4, Endoribonuclease toxin MazF (Escherichia coli K-12, UniProt P0AE70); assay: substrate-only fluorescence increase artefacts – biochemical, single-stranded RNase substrate, counter-screen for MazEF activator project, dose response (AID 588502); type: functional
T4 sequence (P0AE70 whole entry): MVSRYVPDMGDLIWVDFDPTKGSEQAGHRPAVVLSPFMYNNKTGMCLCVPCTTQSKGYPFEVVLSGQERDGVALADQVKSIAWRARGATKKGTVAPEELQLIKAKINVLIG

[22] = target: Beta Lactamase (Pseudomonas aeruginosa, UniProt Q932Y6); assay: BLA reporter interference, concentration series – BLA reporter cells, FRET fluorescence, artefact control for TLR9-MyD88 binding inhibitor project, dose response (AID 588341); type: cell-based;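 also: cell based assay in CHO-K1 cells stably expressing beta-lactamase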
Chain of Beta Lactamase (Q932Y6 whole entry, the tested form may be a part): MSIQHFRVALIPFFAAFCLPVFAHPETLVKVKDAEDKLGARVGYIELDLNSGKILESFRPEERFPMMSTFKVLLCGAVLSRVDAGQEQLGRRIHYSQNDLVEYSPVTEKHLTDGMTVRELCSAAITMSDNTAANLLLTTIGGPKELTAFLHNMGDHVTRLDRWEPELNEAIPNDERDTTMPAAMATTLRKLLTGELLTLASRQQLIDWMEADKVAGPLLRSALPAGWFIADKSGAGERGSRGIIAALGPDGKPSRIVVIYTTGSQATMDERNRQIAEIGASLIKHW

[23] = system: CHO; assay: CHO cell viability loss, potency – luminescence, cytotoxicity control for TLR9-MyD88 binding inhibitor project, dose response (AID 588339); type: functional, cell-based, hamster; details: Cricetulus griseus;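 also: CHO cells stably coexpressing TLR9 and MyD88 fusions from primary screen; compound exposure lasted 48 hours before viability readout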
[24] = target: T4, Endoribonuclease toxin MazF; assay: activation of MazEF endoribonuclease cleavage – biochemical, fluorescence, single-stranded RNA substrate, uHTS hits, dose response (AID 588481); type: functional
[25] = Luminescence Cell-Based Dose Retest to Confirm Inhibitors of Cancer Stem Cells. [Related pubchem assays (depositor defined):AID2717, AID2721]; type: functional; details: Homo sapiens
[26] = Vero E6 cell cytotoxicity, dose response, cytotoxicity control for non-replicating M. tuberculosis project, secondary assay (AID 492998); type: functional, VeroE6; details: Vero C1008
[27] = target: Heat shock protein HSP 90-alpha (Homo sapiens, UniProt P07900); type: functional, organism-based
[28] = cells; type: functional
[29] = THP-1 cell cytotoxicity, dose response, cytotoxicity control for non-replicating M. tuberculosis project (AID 489025); type: functional
[30] = Fluorescence-based cell-based high throughput dose response assay for inhibitors of the interaction of nucleotide-binding oligomerization domain containing 2 (NOD2) and the receptor-interacting serine-threonine kinase 2 (RIPK2).; type: functional; details: Homo sapiens
[31] = target: T5, Heat shock factor protein 1 (Mus musculus, UniProt P38532); assay: enhancement of HSF1-driven luciferase signal – cell-based, NIH3T3, luminescence, dose retest, confirmation (AID 435004); type: functional;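 also: stress induced by proteasome inhibitor MG132 added 30 min after compound; luciferase reporter driven by HSF1 response element in NIH3T3 cells; actives raise luminescence as potentiators of the MG132 stress response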
T5 sequence (P38532 whole entry): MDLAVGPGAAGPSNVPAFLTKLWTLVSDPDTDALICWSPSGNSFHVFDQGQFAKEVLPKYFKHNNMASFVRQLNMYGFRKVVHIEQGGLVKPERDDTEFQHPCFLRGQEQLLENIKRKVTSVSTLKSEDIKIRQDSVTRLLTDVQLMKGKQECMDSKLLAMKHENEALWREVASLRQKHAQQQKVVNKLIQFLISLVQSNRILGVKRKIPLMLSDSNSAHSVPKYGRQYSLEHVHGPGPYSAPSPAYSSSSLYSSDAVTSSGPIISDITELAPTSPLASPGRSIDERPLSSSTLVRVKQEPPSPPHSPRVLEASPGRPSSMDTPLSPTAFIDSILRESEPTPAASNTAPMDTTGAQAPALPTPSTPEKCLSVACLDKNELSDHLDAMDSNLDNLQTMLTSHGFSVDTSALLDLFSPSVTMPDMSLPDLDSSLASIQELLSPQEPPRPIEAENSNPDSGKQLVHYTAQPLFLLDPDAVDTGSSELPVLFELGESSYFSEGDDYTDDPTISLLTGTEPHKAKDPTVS

[32] = system: A-375; assay: proliferation inhibition in MITF-low A375 cells – cell-based, cherry-pick samples, set 2, counter-screen for MITF modulator project, dose response (AID 540335); type: functional; details: Homo sapiens
[33] = system: A-375; assay: MITF: Counter assay: A375 proliferation Measured in Cell-Based System Using Plate Reader - 2084-03_Inhibitor_Dose_DryPowder_Activity. [Related pubchem assays (depositor defined):AID488944]; type: functional; details: Homo sapiens
[34] = system: HeLa; assay: ATP-based viability loss in HeLa cells – cell-based, CellTiter-Glo luminescence, cherry-pick samples, cytotoxicity control for MITF activator project, dose response (AID 540259); type: functional; details: Homo sapiens

Chain of Genome polyprotein (P29990 2492-3391 limits assumed): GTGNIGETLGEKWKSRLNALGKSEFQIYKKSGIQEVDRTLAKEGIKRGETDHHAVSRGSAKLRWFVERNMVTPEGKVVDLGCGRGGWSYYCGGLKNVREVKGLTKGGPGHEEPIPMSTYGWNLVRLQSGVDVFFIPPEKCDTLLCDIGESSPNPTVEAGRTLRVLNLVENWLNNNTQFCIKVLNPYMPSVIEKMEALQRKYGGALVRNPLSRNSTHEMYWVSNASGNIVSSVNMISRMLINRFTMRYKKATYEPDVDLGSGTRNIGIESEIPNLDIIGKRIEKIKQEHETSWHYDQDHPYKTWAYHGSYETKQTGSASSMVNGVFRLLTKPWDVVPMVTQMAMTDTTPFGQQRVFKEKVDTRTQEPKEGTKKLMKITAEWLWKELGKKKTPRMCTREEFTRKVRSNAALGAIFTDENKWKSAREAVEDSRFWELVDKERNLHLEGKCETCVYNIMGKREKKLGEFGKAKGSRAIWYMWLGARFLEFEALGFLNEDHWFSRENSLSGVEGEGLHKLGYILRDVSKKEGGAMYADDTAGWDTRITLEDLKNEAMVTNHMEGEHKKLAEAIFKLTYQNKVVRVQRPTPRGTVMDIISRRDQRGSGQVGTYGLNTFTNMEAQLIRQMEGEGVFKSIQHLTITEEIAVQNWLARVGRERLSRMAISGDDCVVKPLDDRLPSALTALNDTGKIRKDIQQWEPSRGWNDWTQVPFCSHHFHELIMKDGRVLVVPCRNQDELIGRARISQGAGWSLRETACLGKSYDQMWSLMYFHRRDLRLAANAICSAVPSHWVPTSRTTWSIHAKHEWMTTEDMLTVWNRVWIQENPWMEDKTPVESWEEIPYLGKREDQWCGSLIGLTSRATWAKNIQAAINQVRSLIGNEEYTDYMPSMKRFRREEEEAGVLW

With `COc1cc(N=c2ssnc2Cl)c(OC)cc1Cl` the IC50 [1] was > 100 µM (active), the IC50 [2] was > 100 µM (inactive) and the EC50 [3] was 41.9 µM (inactive). The IC50 [4] was 8.83 µM (active), the IC50 [5] was 68.8 µM (inactive) and the IC50 [6] was 92.1 µM (inactive). The EC50 [7] was 27.2 µM (inactive).
For `Nc1nc2ccccc2n1C(=O)c1ccccc1`, the AC50 [8] was 5.38 µM (active) and the AC50 [9] was 108 µM (active).
In the case of `CCCCCCOC(=O)C[N+](C)(C)CCOC1CC2CCC1(C)C2(C)C` (configuration not stated), the EC50 [10] is reported as 23.6 µM (active), the AC50 [11] is reported as 4.16 µM (active) and the EC50 [12] is reported as 0.178 µM (active). For the same molecule, the EC50 [13] was 0.456 µM (active), the EC50 [14] was > 180 µM (inactive) and the EC50 [15] was 30.6 µM (active). For the same molecule, the EC50 [16] was > 30 µM (not active).
For `Cc1nc2c(ccc3nc(NC(=O)Cc4ccccc4)sc32)s1`, the AC50 [17] was 0.73 µM (active).
With `COCCCNCC1C(Oc2ccc(Cl)cc2)C(=O)N1c1ccccc1C` (configuration not stated) the AC50 [9] was 28.2 µM (active).
In the case of `Cc1cc(/C=N/Nc2ccc([N+](=O)[O-])cn2)c(C)n1-c1cccc(C(=O)O)c1`, the EC50 [18] is reported as > 300 µM (not active), the AC50 [17] is reported as 8.79 µM (active) and the AC50 [19] is reported as 14.4 µM (active). For the same molecule, the EC50 [20] was 37.7 µM (active).
With `CCN(CC)c1ccc(C=NNc2ccc([N+](=O)[O-])cn2)cc1` the EC50 [21] was 70.2 µM (inactive), the IC50 [22] was 4.5 µM (active) and the IC50 [23] was 24.3 µM (inactive). For the same molecule, the EC50 [24] was > 99 µM (inactive).
In the case of `C=CCN1C(=O)/C(=C2/C(=O)Nc3ccccc32)c2ccccc21`, the AC50 [25] is reported as 4.32 µM (active), the CC50 [26] is reported as 3.31 µM (active) and the AC50 [27] is reported as 1.17 µM (active). The IC50 [28] was 0.4 µM (active), the IC50 [22] was > 49.8 µM (inactive) and the CC50 [29] was 19.7 µM (active). For the same molecule, the IC50 [30] was 2.1 µM (active), the IC50 [23] was 3.64 µM (active) and the EC50 [31] was 8.91 µM (active).
With `O=C(Nc1cccc(-c2cn3ccccc3n2)c1)c1cccc(Cl)c1` the EC50 [10] was 11 µM (active), the EC50 [13] was 1.05 µM (active) and the EC50 [14] was > 180 µM (inactive). For the same molecule, the EC50 [15] was > 160 µM (inactive).
With `COC(=O)c1c(C)[nH]c(/C=N/Nc2ccccc2)c1C` the AC50 [32] was > 35 µM (active), the AC50 [33] was > 35 µM (active) and the AC50 [34] was 103 µM (active).
